The data set deals with rodent lifetime carcinogenesis bioassay, tumor incidence TD50. Kind of data set: carcinogenic potency in animals, long-term in vivo studies, CPDB compilation (AID 1745844).

In PubChem BioAssay AID1745844 (Carcinogenic Potency Database (CPDB), 2022) one finds carcinogen call and TD50 data, which are given here for five compounds.

“And” between values parts separate entries of the source, which are not always exact repeats. Equal values may be shown once. The source made the active and inactive calls. The rule behind the calls is not given here.

Usually TD50 stands for the dose at which the toxic effect under study appears in half of the subjects.

Regarding `O=S(=O)(O)c1ccc(N=Nc2c(O)ccc3cc(S(=O)(=O)O)ccc23)cc1`, the carcinogen call runs as follows: (mouse, strain B6C3F1, females, in feed, site: any site (literature study), lesion: several types, types named in the paper, dosed 103 weeks, study length 104 weeks) “negative (inactive)”; (mouse, strain Charles River CD (Sprague-Dawley), females, in feed, site: liver, lesion: one or several types, types not named, dosed 80 weeks, study length 80 weeks) “negative (inactive)”; (mouse, strain Charles River CD (Sprague-Dawley), females, in feed, site: lung, lesion: adenoma, dosed 80 weeks, study length 80 weeks) “negative (inactive)”; (mouse, strain Charles River CD (Sprague-Dawley), males, in feed, site: liver, lesion: one or several types, types not named, dosed 80 weeks, study length 80 weeks) “negative (inactive)”; (mouse, strain Charles River CD (Sprague-Dawley), males, in feed, site: lung, lesion: adenoma, dosed 80 weeks, study length 80 weeks) “negative (inactive)”; (rat, strain Not specified, females, in feed, site: liver, lesion: one or several types, types not named, dosed 64 weeks, study length 64 weeks) “negative (inactive)”. For the setting “rat, strain Not specified, males, in feed, site: liver, lesion: one or several types, types not named, dosed 64 weeks, study length 64 weeks”, the carcinogen call is “negative (inactive)”. Moreover, the TD50 by setting is: (mouse, strain B6C3F1, females, in feed, site: lung, lesion: alveolar/bronchiolar adenoma + alveolar/bronchiolar carcinoma, dosed 103 weeks, study length 104 weeks) 66400 mg/kg/day; (mouse, strain B6C3F1, males, in feed, site: any site (literature study), lesion: several types, types named in the paper, dosed 103 weeks, study length 103 weeks) 17800 mg/kg/day; (mouse, strain B6C3F1, males, in feed, site: liver, lesion: hepatocellular adenoma + hepatocellular carcinoma + neoplastic nodule, dosed 103 weeks, study length 103 weeks) 14200 mg/kg/day; (mouse, strain B6C3F1, males, in feed, site: skin, lesion: fibrosarcoma + fibroma, dosed 103 weeks, study length 103 weeks) 37500 mg/kg/day (inactive); (rat, strain Fischer 344, females, in feed, site: any site (literature study), lesion: several types, types named in the paper, dosed 103 weeks, study length 104 weeks) 9060 mg/kg/day (inactive); (rat, strain Fischer 344, males, in feed, site: any site (literature study), lesion: several types, types named in the paper, dosed 103 weeks, study length 104 weeks) 11800 mg/kg/day (inactive). Also, the TD50 (rat, strain Fischer 344, males, in feed, site: liver, lesion: hepatocellular adenoma + hepatocellular carcinoma + neoplastic nodule, dosed 103 weeks, study length 104 weeks) turned out to be 2520 mg/kg/day; the TD50 (rat, strain Not specified, females, in feed, site: any site (literature study), lesion: several types, types named in the paper, dosed 64 weeks, study length 64 weeks) was 87.4 mg/kg/day (inactive); the TD50 (rat, strain Not specified, males, in feed, site: any site (literature study), lesion: several types, types named in the paper, dosed 64 weeks, study length 64 weeks) was 14000 mg/kg/day (inactive).

Regarding `O=C(CCl)c1ccccc1`, the TD50 by setting is: (mouse, strain B6C3F1, females, inhaled, site: any site (literature study), lesion: several types, types named in the paper, dosed 103 weeks, study length 105 weeks) 4.31 mg/kg/day (inactive); (mouse, strain B6C3F1, females, inhaled, site: lung, lesion: alveolar/bronchiolar adenoma + alveolar/bronchiolar carcinoma, dosed 103 weeks, study length 105 weeks) 33.4 mg/kg/day; (mouse, strain B6C3F1, males, inhaled, site: any site (literature study), lesion: several types, types named in the paper, dosed 103 weeks, study length 106 weeks) 2.69 mg/kg/day (inactive); (mouse, strain B6C3F1, males, inhaled, site: liver, lesion: hepatocellular adenoma + hepatocellular carcinoma + neoplastic nodule, dosed 103 weeks, study length 106 weeks) 5.24 mg/kg/day; (mouse, strain B6C3F1, males, inhaled, site: lung, lesion: alveolar/bronchiolar adenoma + alveolar/bronchiolar carcinoma, dosed 103 weeks, study length 106 weeks) 10.4 mg/kg/day; (rat, strain Fischer 344, females, inhaled, site: any site (literature study), lesion: several types, types named in the paper, dosed 103 weeks, study length 105 weeks) 0.859 mg/kg/day. Also, the TD50 is, setting by setting: (rat, strain Fischer 344, females, inhaled, site: mammary gland, lesion: adenocarcinoma + adenoma + fibroadenoma, dosed 103 weeks, study length 105 weeks) 0.224 mg/kg/day; (rat, strain Fischer 344, females, inhaled, site: mammary gland, lesion: adenoma + fibroadenoma, dosed 103 weeks, study length 105 weeks) 0.208 mg/kg/day; (rat, strain Fischer 344, females, inhaled, site: mammary gland, lesion: fibroadenoma, dosed 103 weeks, study length 105 weeks) 0.211 mg/kg/day. For the same compound, the carcinogen call (rat, strain Fischer 344, males, inhaled, site: any site (literature study), lesion: several types, types named in the paper, dosed 103 weeks, study length 105 weeks) is “negative (inactive)”.

As to `NC(=O)CCCCn1ccc(NC(N)=NCC(F)(F)F)n1`, the TD50 reads like this: (mouse, strain B6C3F1, females, in feed, site: gastric mucosa, lesion: carcinoid tumor, malignant, dosed 91 weeks, study length 91 weeks) 956 mg/kg/day; (mouse, strain B6C3F1, males, in feed, site: gastric mucosa, lesion: carcinoid tumor, malignant, dosed 91 weeks, study length 91 weeks) 401 mg/kg/day; (rat, strain Sprague-Dawley, females, in feed, site: gastric mucosa, lesion: carcinoid tumor, malignant, dosed 104 weeks, study length 104 weeks) 1350 mg/kg/day; (rat, strain Sprague-Dawley, males, in feed, site: gastric mucosa, lesion: carcinoid tumor, malignant, dosed 104 weeks, study length 104 weeks) 1030 mg/kg/day.

In the case of `CCC1(c2ccccc2)C(=O)NCNC1=O`, the TD50 reads like this: (mouse, strain B6C3F1, females, in feed, site: any site (literature study), lesion: several types, types named in the paper, dosed 101 weeks, study length 104 weeks) 163 mg/kg/day; (mouse, strain B6C3F1, females, in feed, site: liver, lesion: hepatoblastoma + hepatocellular carcinoma, dosed 101 weeks, study length 104 weeks) 98.7 mg/kg/day; (mouse, strain B6C3F1, females, in feed, site: liver, lesion: hepatoblastoma, dosed 101 weeks, study length 104 weeks) 1390 mg/kg/day; (mouse, strain B6C3F1, females, in feed, site: liver, lesion: hepatocellular adenoma + hepatoblastoma + hepatocellular carcinoma, dosed 101 weeks, study length 104 weeks) 42.8 mg/kg/day; (mouse, strain B6C3F1, females, in feed, site: liver, lesion: hepatocellular adenoma + hepatocellular carcinoma, dosed 101 weeks, study length 104 weeks) 28.9 mg/kg/day; (mouse, strain B6C3F1, females, in feed, site: liver, lesion: hepatocellular adenoma, dosed 101 weeks, study length 104 weeks) 27.7 mg/kg/day. For the same compound, the TD50 reads like this: (mouse, strain B6C3F1, females, in feed, site: liver, lesion: hepatocellular carcinoma, dosed 101 weeks, study length 104 weeks) 97.3 mg/kg/day; (mouse, strain B6C3F1, males, in feed, site: all sites, lesion: histiocytic sarcoma, dosed 101 weeks, study length 103 weeks) 1150 mg/kg/day; (mouse, strain B6C3F1, males, in feed, site: any site (literature study), lesion: several types, types named in the paper, dosed 101 weeks, study length 103 weeks) 77.6 mg/kg/day; (mouse, strain B6C3F1, males, in feed, site: liver + thyroid gland, lesion: hepatocellular adenoma + hepatoblastoma + hepatocellular carcinoma + follicular-cell adenoma, dosed 101 weeks, study length 103 weeks) 60.2 mg/kg/day; (mouse, strain B6C3F1, males, in feed, site: liver, lesion: hepatoblastoma + hepatocellular carcinoma, dosed 101 weeks, study length 103 weeks) 24.7 mg/kg/day; (mouse, strain B6C3F1, males, in feed, site: liver, lesion: hepatoblastoma, dosed 101 weeks, study length 103 weeks) 52.5 mg/kg/day. The TD50 runs as follows: (mouse, strain B6C3F1, males, in feed, site: liver, lesion: hepatocellular adenoma + hepatoblastoma + hepatocellular carcinoma, dosed 101 weeks, study length 103 weeks) 60.2 mg/kg/day; (mouse, strain B6C3F1, males, in feed, site: liver, lesion: hepatocellular adenoma + hepatocellular carcinoma, dosed 101 weeks, study length 103 weeks) 60.4 mg/kg/day; (mouse, strain B6C3F1, males, in feed, site: liver, lesion: hepatocellular adenoma, dosed 101 weeks, study length 103 weeks) 46.8 mg/kg/day; (mouse, strain B6C3F1, males, in feed, site: liver, lesion: hepatocellular carcinoma, dosed 101 weeks, study length 103 weeks) 55 mg/kg/day; (mouse, strain B6C3F1, males, in feed, site: lung, lesion: alveolar/bronchiolar adenoma + alveolar/bronchiolar carcinoma, dosed 101 weeks, study length 103 weeks) 1760 mg/kg/day; (mouse, strain B6C3F1, males, in feed, site: thyroid gland, lesion: follicular-cell adenoma, dosed 101 weeks, study length 103 weeks) 349 mg/kg/day. Besides, the TD50 is 4050 mg/kg/day (rat, strain Fischer 344, females, in feed, site: liver, lesion: hepatocellular adenoma + hepatoblastoma + hepatocellular carcinoma, dosed 101 weeks, study length 103 weeks); 20.8 mg/kg/day (rat, strain Fischer 344, males, in feed, site: adrenal medulla, lesion: pheochromocytoma benign, bilateral + pheochromocytoma, benign, dosed 99 weeks, study length 103 weeks); 20.8 mg/kg/day (rat, strain Fischer 344, males, in feed, site: adrenal medulla, lesion: pheochromocytoma benign, bilateral + pheochromocytoma, malignant + pheochromocytoma, benign, dosed 99 weeks, study length 103 weeks); 15.4 mg/kg/day (rat, strain Fischer 344, males, in feed, site: any site (literature study), lesion: several types, types named in the paper, dosed 99 weeks, study length 103 weeks); 522 mg/kg/day and 967 mg/kg/day (rat, strain Fischer 344, males, in feed, site: kidney, lesion: tubule adenoma + tubule carcinoma, dosed 99 weeks, study length 103 weeks); 1280 mg/kg/day and 1290 mg/kg/day (rat, strain Fischer 344, males, in feed, site: kidney, lesion: tubule adenoma, dosed 99 weeks, study length 103 weeks). For the same compound, the TD50 (rat, strain Fischer 344, males, in feed, site: liver, lesion: hepatocellular adenoma + hepatoblastoma + hepatocellular carcinoma, dosed 99 weeks, study length 103 weeks) was determined as 138 mg/kg/day; the TD50 (rat, strain Fischer 344, males, in feed, site: testis, lesion: interstitial-cell adenoma, bilateral + interstitial-cell adenoma, dosed 99 weeks, study length 103 weeks) was 8.15 mg/kg/day; the TD50 (rat, strain Fischer 344, males, in feed, site: thyroid gland, lesion: follicular-cell adenoma + follicular-cell carcinoma, dosed 99 weeks, study length 103 weeks) was found to be 80.2 mg/kg/day; the TD50 (rat, strain Fischer 344, males, in feed, site: thyroid gland, lesion: follicular-cell adenoma, dosed 99 weeks, study length 103 weeks) was 174 mg/kg/day. The carcinogen call (rat, strain Fischer 344, females, in feed, site: any site (literature study), lesion: several types, types named in the paper, dosed 101 weeks, study length 103 weeks) is “negative (inactive)”.

Take `C[C@H](CCC(=O)O)[C@H]1CC[C@H]2[C@@H]3CC[C@@H]4C[C@H](O)CC[C@]4(C)[C@H]3CC[C@]12C`: the TD50 (mouse, strain B6C3F1, females, by gavage, site: any site (literature study), lesion: several types, types named in the paper, dosed 103 weeks, study length 105 weeks) was 960 mg/kg/day (inactive); the TD50 (mouse, strain B6C3F1, females, by gavage, site: liver, lesion: hepatocellular adenoma + hepatocellular carcinoma + neoplastic nodule, dosed 103 weeks, study length 105 weeks) came to 1140 mg/kg/day; the TD50 (mouse, strain B6C3F1, females, by gavage, site: lung, lesion: alveolar/bronchiolar adenoma + alveolar/bronchiolar carcinoma, dosed 103 weeks, study length 105 weeks) was 1030 mg/kg/day; the TD50 (mouse, strain B6C3F1, males, by gavage, site: lung, lesion: alveolar/bronchiolar adenoma + alveolar/bronchiolar carcinoma, dosed 103 weeks, study length 105 weeks) was 834 mg/kg/day; the TD50 (rat, strain Fischer 344, females, by gavage, site: any site (literature study), lesion: several types, types named in the paper, dosed 103 weeks, study length 104 weeks) is 686 mg/kg/day (inactive); the TD50 (rat, strain Fischer 344, females, by gavage, site: liver, lesion: hepatocellular adenoma + hepatocellular carcinoma + neoplastic nodule, dosed 103 weeks, study length 104 weeks) amounted to 1890 mg/kg/day. The TD50 was 501 mg/kg/day (inactive) (rat, strain Fischer 344, males, by gavage, site: any site (literature study), lesion: several types, types named in the paper, dosed 103 weeks, study length 104 weeks) and 2250 mg/kg/day (rat, strain Fischer 344, males, by gavage, site: liver, lesion: hepatocellular adenoma + hepatocellular carcinoma + neoplastic nodule, dosed 103 weeks, study length 104 weeks). For the same compound, the carcinogen call (mouse, strain B6C3F1, males, by gavage, site: any site (literature study), lesion: several types, types named in the paper, dosed 103 weeks, study length 105 weeks) is “negative (inactive)”.
